Experimental data reported in patent US10766888B1, “HMOX1 inducers” (Mitobridge Inc., priority 2019, dated 2020).
Where two headings read alike, the source gives them in different places.

Assays:
hERG channel = hERG channel (Homo sapiens, UniProt Q12809); experiment: hERG manual patch clamp assay; type: cell-based; conditions: HEK 293 cells stably expressing hERG channel, pH 7.35, 10 μM compound
How it was run: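 Whole-cell manual patch clamp on doxycycline-induced HEK293 cells stably expressing hERG. Tail current measured at −50 mV after a 4.8 s step to +30 mV from −90 mV holding; test compounds at 10 μM, 0.1% DMSO, vs vehicle baseline. Percent inhibition from peak tail current, […].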

[1] = PD study: compound concentration in mouse liver; type: in vivo, C57BL/6 mice; conditions: male, C57BL/6, mouse, 50 mg/kg, 50 mpk oral
Procedure: 9-10 week old male C57BL/6 mice were dosed orally with 50 mg/kg of vehicle or compound formulated in 5% w/v tween 80 and 0.5% methyl cellulose. At indicated time points (3 and 6 hours or or 4 and 8 hours post-dosing as shown in the results below), whole blood was collected, animal was sacrificed and liver was collected. Blood samples were transferred to vials containing 4 μL of 10% w/v EDTA, centrifuged at 6000 rpm for 8 in below 10° C. to obtain plasma. Samples were frozen and later processed for HMOX1 protein levels as indicated below: […]

[2] = PK study: plasma and brain levels in mice; type: in vivo, C57BL/6 mice; conditions: mouse, plasma, measured in a previous study
[3] = system: Human Heme Oxygenase-1 (HMOX-1); experiment: ELISA assay to measure human heme oxygenase-1 (HMOX-1) in HepG2 lysate; type: cell-based
How it was run: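 Treated HepG2 cells were lysed in PBS with 0.5% Triton X100, 1 mM EDTA and protease inhibitors, and lysates were diluted 1:20. HO-1 was measured by sandwich ELISA (biotinylated detection antibody, streptavidin-HRP, chemiluminescence) at room temperature against a standard curve from 20 ng/ml. EC50 and fold change were expressed relative to DMSO control.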

hERG channel, sequence (Q12809 whole entry): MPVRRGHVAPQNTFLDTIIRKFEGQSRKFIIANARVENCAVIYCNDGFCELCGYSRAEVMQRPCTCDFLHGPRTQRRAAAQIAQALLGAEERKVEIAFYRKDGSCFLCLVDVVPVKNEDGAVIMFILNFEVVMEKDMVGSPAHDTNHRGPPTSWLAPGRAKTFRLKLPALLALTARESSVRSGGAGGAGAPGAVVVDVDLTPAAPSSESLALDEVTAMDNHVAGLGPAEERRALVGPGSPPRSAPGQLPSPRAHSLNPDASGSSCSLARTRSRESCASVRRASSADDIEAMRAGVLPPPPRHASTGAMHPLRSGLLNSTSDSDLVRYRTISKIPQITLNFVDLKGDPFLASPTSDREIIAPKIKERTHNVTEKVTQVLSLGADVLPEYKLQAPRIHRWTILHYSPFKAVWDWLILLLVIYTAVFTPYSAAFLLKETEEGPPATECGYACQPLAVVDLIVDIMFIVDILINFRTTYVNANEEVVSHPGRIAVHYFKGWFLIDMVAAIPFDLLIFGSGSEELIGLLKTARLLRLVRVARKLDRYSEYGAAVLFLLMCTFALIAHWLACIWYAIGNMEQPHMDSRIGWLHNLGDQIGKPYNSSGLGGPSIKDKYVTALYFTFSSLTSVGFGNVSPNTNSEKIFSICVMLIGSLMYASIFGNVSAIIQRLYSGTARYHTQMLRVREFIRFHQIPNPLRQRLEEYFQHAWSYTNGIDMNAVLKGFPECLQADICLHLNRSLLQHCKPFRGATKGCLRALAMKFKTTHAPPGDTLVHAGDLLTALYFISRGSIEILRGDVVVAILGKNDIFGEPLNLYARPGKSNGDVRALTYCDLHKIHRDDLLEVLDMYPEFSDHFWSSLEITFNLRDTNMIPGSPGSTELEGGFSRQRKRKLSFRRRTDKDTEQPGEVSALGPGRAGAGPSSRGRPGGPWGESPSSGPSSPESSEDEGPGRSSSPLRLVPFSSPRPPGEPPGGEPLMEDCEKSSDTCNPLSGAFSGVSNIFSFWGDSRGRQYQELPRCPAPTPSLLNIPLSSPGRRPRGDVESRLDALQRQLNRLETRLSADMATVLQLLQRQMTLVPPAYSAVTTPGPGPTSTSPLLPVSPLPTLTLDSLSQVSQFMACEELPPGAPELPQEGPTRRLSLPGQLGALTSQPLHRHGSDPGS

Compound Cn1c(Nc2nc3ccc(OC(F)(F)F)cc3s2)nc2cc(C(=O)NCCOCCO)ccc21 [Comparator 1, 1-methyl-2-(6-trifluoromethoxy-benzothiazol-2-ylamino)-1H-benzoimidazole-5-carboxylic acid [2-(2-hydroxy-ethoxy)-ethyl]-amide, reference compound] has an inhibition at 10 µM (hERG channel) of 66%, a concentration at 3 h ([1]; 3 h, read-out: Liver Conc uM (3 h)) of 12.2 µM and a concentration at 6 h ([1]; 6 h, read-out: Liver Conc uM (6 h)) of 1.3 µM. The concentration at 1 h ([2]; 1 hr) was 2070 ± 318 ng/mL, the concentration at 4 h ([2]; 4 hr) was 288 ± 124 ng/mL and the EC50 ([3]; HepG2, human HMOX1, as listed in Table 5, read-out: HMOX1 EC50 h) was 900 nM. For the same compound, the EC50 ([3]; human HMOX1 protein level in HepG2 lysate, * = average of 2 or more EC50 determinations, NA = Not Active, read-out: EC50) was 900 nM.
